According to paper PMC7278979, “Ellagic Acid Controls Cell Proliferation and Induces Apoptosis in Breast Cancer Cells via Inhibition of Cyclin-Dependent Kinase 6” (International Journal of Molecular Sciences, 2020):

How the values were obtained:
MCF-7 cells [1] = assay: Apoptosis assay (Annexin-V staining, flow cytometry); assay type: cell-based, human; details: MCF-7, IC50 concentration of EA, 48 h
CDK6 [2] = target: T1, CDK6 (Homo sapiens, UniProt Q00534); assay: Fluorescence binding (quenching) study with recombinant CDK6; details: for Ksv: Stern-Volmer plot; for ΔG°: van 't Hoff equation
T1 construct: The 981-bp coding region (326 amino acids) was amplified by PCR from plasmid pcDNA containing the CDK6 gene; His-tag; made in house; host or cells: E. coli BL21 (codon+), pET28a+ (NcoI/XhoI)
T1 sequence (Q00534 whole entry): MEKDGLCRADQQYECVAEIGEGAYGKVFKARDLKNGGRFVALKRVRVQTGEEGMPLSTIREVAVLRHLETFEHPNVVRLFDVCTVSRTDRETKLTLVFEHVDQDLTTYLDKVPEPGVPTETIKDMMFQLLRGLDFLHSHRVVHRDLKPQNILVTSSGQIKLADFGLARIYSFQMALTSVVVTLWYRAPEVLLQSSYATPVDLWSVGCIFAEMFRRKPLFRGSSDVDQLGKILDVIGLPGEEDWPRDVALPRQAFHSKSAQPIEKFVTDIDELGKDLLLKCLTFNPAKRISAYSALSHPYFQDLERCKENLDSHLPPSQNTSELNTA
Experimental: To study the binding affinity of EA with the recombinant CDK6, a fluorescence binding study was performed. CDK6 was titrated with the EA and corresponding emission spectra were recorded in the range of 300–400 nm after carrying out excitation at 280 nm. The inner filter effect was corrected for the obtained intensities. Fluorescence emission spectra were analyzed by the Stern-Volmer equation to find Stern-Volmer constant (Ksv) and modified Stern-Volmer equation to estimate the binding constant (K) and the number of binding sites (n). Other binding features were estimated by our previously described protocol.
With each reaction, changes in enthalpy and entropy are associated, which are evidence of the type of reaction taking place. Equation (1) (“van ’t Hoff equation”) was employed to calculate the thermodynamic parameters associated with this binding, (1) ΔG°=−RTLnK=ΔH°−TΔS°

MDA-MB-231 cells [3] = assay: Apoptosis assay (Annexin-V staining, flow cytometry); assay type: cell-based, human; details: MDA-MB-231, IC50 concentration of EA, 48 h
CDK6 [4] = target: T1, CDK6; assay: Isothermal titration calorimetry of EA with CDK6; details: ITC, 25 °C, one binding site model; read-out: Ka (binding constant) (converted)
Experimental: ITC measurements were carried out at 25 °C using a VP-ITC microcalorimeter (MicroCal, Inc, GE, MicroCal, USA). The sample cell was filled with 15–20 µM CDK6 and 500 µM EA solution was filled in the syringe. An automated titration was carried out with (including a first false injection of 2 μL) a successive injection of 10 μL EA solution into a CDK6 sample cell at a 260 s interval with 320 rpm stirring speed. For analysis, the heat of dilution of EA in the sample buffer was subtracted from the titration data. MicroCal Origin 8.0 was used to analyze the stoichiometry of binding (n), enthalpy change (ΔH), an association constant (Ka).

CDK6 [5] = assay: CDK6 expression study (immunoblotting); assay type: cell-based, human; details: EA-treated vs vehicle control, immunoblot
Experimental: The cell lysates of EA-treated/untreated MCF-7 and MDA-MB-231 cell lines were prepared using RIPA cell lysis buffer (Thermo Fisher Scientific (USA)) and total protein was isolated. The amount of protein was quantified by a BCA-protein estimation kit. Nearly, 50–60 μg of total protein was subjected for SDS-PAGE, and obtained bands were blotted to polyvinylidene fluoride membrane. The protein of interest was identified using respective primary antibodies and horseradish peroxidase (HRP) conjugated secondary IgG using the luminol method.

CDK6 [6] = target: T1, CDK6; assay: ATPase enzyme inhibition assay (malachite green); assay type: biochemical; details: CDK6 1 µM, ATP 50 µM, 25 °C, 1 h, AAT Bioquest calculator
Experimental: ATPase assay was performed to see the CDK6 inhibitory activity of EA [57]. For a typical kinase reaction, freshly prepared ATP (50 µM) was incubated with CDK6 (1 µM) in a reaction volume of 100 μL and incubated at 25 °C for 1 h. Similar reactions were set up with the increasing concentration of EA. Malachite green (200 μL) was further added to the reaction mixture to stop the reaction followed by incubation of samples at room temperature for 20–25 min for the development of color. The absorbance of the final reaction product was measured spectrophotometrically at 620 nm.

MDA-MB-231 cells [7] = assay: Colony formation assay; assay type: cell-based, human; details: MDA-MB-231, IC50 concentration of EA, 10–12 days, vs vehicle control
Experimental: (§1) To perceive the effect of EA treatment on the colonogenic potential of selected cell lines colony formation studies were performed as described previously. Briefly, ~1500–2000 (MCF-7/MDA-MB-231 cells) cells/well were seeded (in triplicates) in each well of a 6-well cell culture plate. The cells were grown in complete cell growth medium for 48 h and incubated with respective IC50 concentrations of EA for 10–12 days, (at 37 °C, in a 5% CO2 incubator). On the other hand, the control cells were incubated with vehicle control (DMSO) under similar experimental conditions. After 10–12 days, the colonies of cells were fixed with 100% methanol and subsequently stained using a 0.4% crystal violet solution (prepared in 25% methanol. Finally, the colonies obtained after staining were photographed, quantified, plotted, and analyzed by comparing with vehicle control.

MCF-7 cells [8] = assay: Colony formation assay; assay type: cell-based, human; details: MCF-7, IC50 concentration of EA, 10–12 days, vs vehicle control
Experimental: as §1

MDA-MB-231 cells [9] = assay: Cell viability MTT assay; assay type: cell-based; details: Homo sapiens, MDA-MB-231, 48 h (Figure 8 legend; method says 72 h), mean ± SD n = 3
Experimental: (§2) Cell viabilities of cancer cells with or without EA were evaluated using MTT assay. Briefly, the selected cells (MCF-7 and MDA-MB-231) were seeded in a 96-well (5000–6000 cells/well) culture plate. Overnight grown cells were incubated with EA (0–250 μM) for 72 h in a CO2 incubator, at 37 °C. After a stipulated time of treatment, 20 µL of MTT (from 5 mg/mL stock solution in PBS, pH 7.4) was added to each treatment well of 96-well plate, and plates with MTT solution were incubated additionally for 4–5 h, in the CO2 incubator. Lastly, the formazan were solubilized by adding 100 µL of DMSO to each well. The absorbance (A) of the dissolved purple reaction solution was measured at 570 nm. Absorption readings were converted into percent cell viability and used to estimate 50% inhibitory concentration (IC50) of EA for selected cancer cells.

MCF-7 cells [10] = assay: Cell viability MTT assay; assay type: cell-based; details: Homo sapiens, MCF7, MCF-7, 48 h (Figure 8 legend; method says 72 h), mean ± SD n = 3
Experimental: as §2

[11] = van 't Hoff plot over 298, 301, 303 K (same value printed at each temperature)

## O=c1oc2c(O)c(O)cc3c(=O)oc4c(O)c(O)cc1c4c23 [EA, ellagic acid]
MCF-7 cells [1]
  Annexin-V positive cells (apoptosis): 23.3%
CDK6 [2]; 298 K
  Kq (bimolecular quenching rate constant): 5.8 10^12 M^−1s^−1
  TΔS°: 84.60 kcal/mol
  Ksv: 5.8 10^4 M^−1
  ΔG°: -8.73 kcal/mol
CDK6 [2]; 301 K
  Kq (bimolecular quenching rate constant): 14.2 10^12 M^−1s^−1
  TΔS°: 85.45 kcal/mol
  Ksv: 14.2 10^4 M^−1
  ΔG°: -9.59 kcal/mol
CDK6 [2]; 303 K
  Kq (bimolecular quenching rate constant): 19.8 10^12 M^−1s^−1
  TΔS°: 86.02 kcal/mol
  Ksv: 19.8 10^4 M^−1
  ΔG°: -10.16 kcal/mol
CDK6 [2]; fluorescence quenching, modified Stern-Volmer, 303 K
  binding constant (K): 2.6e+07 M⁻¹
CDK6 [2]; fluorescence quenching, modified Stern-Volmer, 303 K, read-out: binding constant (K)
  Kd: 100 nM
CDK6 [2]; modified Stern-Volmer, 298 K
  n (number of binding sites): 1.32
CDK6 [2]; modified Stern-Volmer, 298 K, read-out: K (binding constant) (converted)
  Kd: 345 nM
CDK6 [2]; modified Stern-Volmer, 301 K
  n (number of binding sites): 1.16
CDK6 [2]; modified Stern-Volmer, 301 K, read-out: K (binding constant) (converted)
  Kd: 154 nM
CDK6 [2]; modified Stern-Volmer, 303 K
  n (number of binding sites): 1.41
CDK6 [2]; modified Stern-Volmer, 303 K, read-out: K (binding constant) (converted)
  Kd: 38.5 nM
CDK6 [2]; [11]
  ΔH°: 75.8657 kcal/mol
  ΔS: 283.9087 cal.mol^−1K^−1
MDA-MB-231 cells [3]
  Annexin-V positive cells (apoptosis): 27.9%
CDK6 [4]
  Kd: 39700 nM
CDK6 [5]; MCF-7 cells
  expression of CDK6: decreases the expression of CDK6
CDK6 [5]; MDA-MB-231 cells
  expression of CDK6: decreases the expression of CDK6
CDK6 [6]
  IC50: 3050 nM
MDA-MB-231 cells [7]
  number of colonies: decreases the number of colonies significantly
MCF-7 cells [8]
  number of colonies: decreases the number of colonies significantly
MDA-MB-231 cells [9]
  IC50: 20500 ± 1220 nM
MCF-7 cells [10]
  IC50: 29100 ± 1150 nM
